# Assay results: paper PMC12003248, “ERCC6L2 mitigates replication stress and promotes centromere stability” (Cell Reports, 2023)
# Assays:
# Assay type in all cases: cell-based, human
# pKAP1 (KAP1 S824) = assay: pKAP1 levels; details: 50 µg/ml phleomycin for 12 h; vs control cells
# Description: (§1) 0.8 ControlERCC6L2ControlERCC6L2
# (§2) 0.4 28 kDa short exposure […]
# (§3) Figure S12. DNA damage-induced changes in control and ERCC6L2 -/- cells. Related to Figure 6.
# (§4) (A) Box and whisker plots measuring average pRPA intensi?es in control and ERCC6L2-/- cells. Cells were either untreated, or exposed to 50 µg /ml phleomycin for 12 h, before ﬁxa?on and staining. N(images)>180, N(cells)>28,000. (B) Representa?ve images of phleomycin treated cells used for quan?ﬁca?ons in A. Shown are expressions of indicated proteins, with zoomed images of cells in coloured frames.
# (§5) (C) Analysis of pRPA levels by western blot. Treatments were as in A. (D) Box and whisker plots measuring average pKAP1 intensi?es in control and ERCC6L2-/- cells. Cells were either untreated, or exposed to 50 µg /ml phleomycin for 12 h, before ﬁxa?on and staining.
# N(images)>180, N(cells)>28,000. (E) Representa?ve images of phleomycin treated cells used for quan?ﬁca?ons in D. Shown are expressions of indicated proteins, with zoomed images of cells in coloured frames. (F) Analysis of pKAP1 levels by western blot. Treatments were as in D. (G) Box and whisker plots measuring KAP1 foci in control and ERCC6L2-/- cells. Cells were either untreated, or exposed to 50 µg /ml phleomycin for 12 h, before ﬁxa?on and staining. N(images)>180, N(cells)>28,000. B, E, H: Scale bar: 10 µm. A, D, G: Sta?s?cs […]
# CENP-B = CENP-B intensities by QIBC after genotoxic stress; details: 1 h, 5 h recovery, N(cells)>30,000
# [1] = system: control and ERCC6L2^−/− U2OS cells; assay: Micronuclei formation; details: cells grown with damaging agents for 2 days; ERCC6L2^−/− vs control U2OS
# Description: absence or presence of damaging agents for 2 days. CENPC and 53BP1 were used as centromeric and DSB markers, respec?vely. N(images) >140, N(cells)>50,000. (B) Quan?ﬁca?on of micronuclei subtypes in control and ERCC6L2-/- U2OS cells, as indicated. 53BP1 or γH2AX were used as DSB markers; CENP-C was used as a centromere marker; Telomeric repeat-binding factor 2-interac?ng protein 1 (RAP1) was used as a telomere marker. N(images)>400, N(cells)>30,000.
# [2] = system: control and ERCC6L2^−/− U2OS cells; assay: Clonogenic survival assay; details: 11 days, 3 independent experiments, ERCC6L2^−/− vs control U2OS
# Description: Cells were seeded in 6-well plates (approximately 700 cells/well) and either left untreated or treated with the indicated concentrations of genotoxic agents. Cells were then grown for 11 days to allow colony formation. Colonies were stained with 5 mg/ml crystal violet (Sigma-Aldrich) solution in 25% methanol for 30 min. Pictures were taken using a Nikon D3200 camera and images were analyzed using FIJI software. FIJI’s ‘Analyze Particles’ function was used to quantify numbers of colonies. Survival was calculated relative to untreated cells. Each experiment was performed in technical triplicates, and data shown represent combined data from at least three independent experiments.
# pRPA32 = assay: pRPA levels (ssDNA marker); details: 50 µg/ml phleomycin for 12 h; vs control cells
# Description: For quantitative analysis of pRPA, RAD51, γH2AX, and EdU foci, non-overlapping images were acquired using a 20x objective lens. Image analysis was performed using CellProfiler.[98] For quantification of TRF1-and CENP-C-positive micronuclei, random non-overlapping images were acquired, and Z-stacks were further collected for each micronucleus to examine the presence of TRF1 and CENP-C foci. […]
# as §1, §2, §3, §4, §5
# N(images)>180, N(cells)>28,000. […]
# laser-induced DNA breaks = assay: Recruitment to laser-induced DNA breaks; details: U2OS cells, 405 nm laser, 10 μM BrdU 16 h
# Description: U2OS cells were grown in glass-bottomed 24 well plates and transfected with YFP-ERCC6L2 constructs using Lipofectamine 2000 (Life Technologies). Transfected cells were then incubated with 10 μM BrdU for 16 h at 37°C. Laser microirradiation was carried out on an Olympus FV1200 confocal microscope equipped with an environmental chamber. Localised DNA damage was induced in cells showing YFP-tagged protein expression using a 405 nm laser. Recruitment of the proteins was monitored by live cell imaging at 488 nm.
# endogenous PCNA = assay: Colocalization of YFP-ERCC6L2 constructs with endogenous PCNA; details: YFP-tagged, U2OS cells
# Description: Figure 4 ERCC6L2 contains an atypical PCNA-binding motif (A) ERCC6L2 colocalizes with PCNA at CENP-C-negative foci. U2OS cells transfected with YFP-ERCC6L2 were stained for CENP-C and PCNA after pre-extraction of soluble proteins. ERCC6L2-and PCNA-positive, but CENP-C negative foci (red arrows) are marked in zoomed images. (B) ERCC6L2 colocalizes with RPA at CENP-C-negative foci. U2OS cells transfected with YFP-ERCC6L2 were stained for CENP-C and RPA. ERCC6L2- and RPA-positive, but CENP-C-negative foci (red arrows) are marked in zoomed images. (C) Colocalization of the C-terminal ERCC6L2^701−1561 fragment with endogenous PCNA. (D) PCNA pull-down with biotinylated peptides. Biotinylated PIP-box and APIM motif peptides were bound to streptavidin beads and incubated with recombinant PCNA. Interactions were assayed by western blotting with PCNA antibody. Wild-type ZRANB3 PIP-box peptide (ZRANB3 PIP) was used as a positive control. Mutant ZRANB3 PIP-box peptide (Q519A, F525A, and F526A, ZRANB3 PIP^∗) served as a negative control. […] Interactions were assessed by western blotting against PCNA (shown on the right). […]
# U2OS cells (ATCC) were grown in 24 well plates. […] Samples were analyzed by confocal microscopy using Olympus FV1200 or Zeiss 880 Airyscan microscopes, or using EVOS M7000 Imaging System. […]
# [3] = system: control and ERCC6L2^−/− cells; assay: Nascent DNA degradation assay (DNA combing); details: 3 mM hydroxyurea, 4 h; IdU/CldU track ratio; N(tracks)>700
# Description: Control and ERCC6L2^−/− cells were labeled with 100 μM CldU, followed by 100 μM IdU in the presence of 10 μM Polα inhibitor CD437. Each pulse lasted 40 min. Cells were then trypsinised and embedded in agarose plugs using a kit from Genomic Vision according to the manufacturer’s instructions. DNA was extracted and purified from the agarose plugs, and stretched onto silanised coverslips with the molecular combing system (Genomic Vision). CldU was detected with rat anti-BrdU antibody (Abcam, BU1/75) and Alexa Fluor 594 conjugated secondary antibody (Thermo Fisher Scientific). ldU was detected with mouse anti-BrdU antibody (Becton Dickinson, BD44) and Alexa Fluor 488 conjugated secondary antibody (Thermo Fisher Scientific). […] More than 1500 tracks were analyzed per condition.
# For nascent DNA degradation assay, cells were sequentially incubated with 100 μM CldU and 100 μM IdU. […] More than 700 tracks were analyzed per condition. […]
# Error bars represent standard errors from 3 independent experiments. […] U2OS cells were transfected with YFP-ERCC6L2 constructs and monitored by live cell imaging following laser induced DNA damage. […]
# (F) Valida?on of siRNA against CTC1 and C20orf196. […] For BRCA1, RIF1, REV7, 53BP1, BLM and CtIP, cells were transfected as in F, and endogenous proteins were detected by speciﬁc an?bodies. […] Expression was detected by an?-FLAG or an?-GFP an?bodies, as indicated. […]
compound,measurement,setting,value
phleomycin,pKAP1 levels in treated ERCC6L2^−/− cells,pKAP1 (KAP1 S824),decreased levels of pKAP1
same,CENP-B intensities after 25 µg/ml phleomycin,CENP-B,not aﬀected by DNA damage
same,micronuclei formation in ERCC6L2-deficient cells,[1],increased frequency of micronuclei formation
same,sensitivity of ERCC6L2-deficient cells,[2],increased sensitivity
same,pRPA levels in treated ERCC6L2^−/− cells,pRPA32,increased levels of pRPA
"full-length ERCC6L2: full-length human ERCC6L2, YFP-tagged",mobilization to laser-induced DNA breaks,laser-induced DNA breaks,efficient mobilization
same,colocalization with endogenous PCNA,endogenous PCNA,largely absent from PCNA foci in S-phase cells
NC(=O)NO [hydroxyurea],"nascent DNA protection, control vs ERCC6L2^−/−",[3],did not observe significant differences in nascent DNA protection
